How the values were obtained:
[1] = test system: most sensitive cancer cell line; assay: cell activity: CTG anti-proliferation in most sensitive cancer cell line; type: cell-based; details: APA analogs
[2] = target: T1, LKB1 (Homo sapiens, UniProt Q15831+Q7RTN6); assay: in vitro LKB1 functional activity; type: biochemical; details: APA analogs
T1 sequence (Q15831 1-433): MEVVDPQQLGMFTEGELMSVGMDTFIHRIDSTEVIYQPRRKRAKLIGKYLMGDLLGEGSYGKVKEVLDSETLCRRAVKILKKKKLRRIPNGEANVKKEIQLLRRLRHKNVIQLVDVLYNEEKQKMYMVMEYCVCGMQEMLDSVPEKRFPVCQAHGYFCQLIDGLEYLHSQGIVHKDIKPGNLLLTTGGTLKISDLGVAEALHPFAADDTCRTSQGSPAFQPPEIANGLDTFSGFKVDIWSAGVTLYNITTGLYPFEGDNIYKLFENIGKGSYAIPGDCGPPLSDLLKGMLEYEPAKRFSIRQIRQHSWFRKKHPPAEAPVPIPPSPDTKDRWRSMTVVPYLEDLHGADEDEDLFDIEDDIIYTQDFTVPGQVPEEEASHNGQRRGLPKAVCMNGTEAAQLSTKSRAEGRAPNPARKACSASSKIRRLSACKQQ
T1 sequence (Q7RTN6 1-431): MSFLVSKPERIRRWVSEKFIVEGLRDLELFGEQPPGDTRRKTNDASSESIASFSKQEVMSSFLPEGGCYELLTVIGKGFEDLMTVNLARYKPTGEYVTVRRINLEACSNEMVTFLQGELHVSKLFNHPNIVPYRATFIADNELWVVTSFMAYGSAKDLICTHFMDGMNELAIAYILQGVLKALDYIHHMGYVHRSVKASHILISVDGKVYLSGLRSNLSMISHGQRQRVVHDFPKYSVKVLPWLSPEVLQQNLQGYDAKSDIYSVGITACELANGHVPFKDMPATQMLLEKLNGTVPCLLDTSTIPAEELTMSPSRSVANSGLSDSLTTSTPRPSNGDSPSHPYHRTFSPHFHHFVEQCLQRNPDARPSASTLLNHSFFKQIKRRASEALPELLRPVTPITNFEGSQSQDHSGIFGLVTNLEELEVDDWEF
T1 sequence (Q9Y376 1-341 partner): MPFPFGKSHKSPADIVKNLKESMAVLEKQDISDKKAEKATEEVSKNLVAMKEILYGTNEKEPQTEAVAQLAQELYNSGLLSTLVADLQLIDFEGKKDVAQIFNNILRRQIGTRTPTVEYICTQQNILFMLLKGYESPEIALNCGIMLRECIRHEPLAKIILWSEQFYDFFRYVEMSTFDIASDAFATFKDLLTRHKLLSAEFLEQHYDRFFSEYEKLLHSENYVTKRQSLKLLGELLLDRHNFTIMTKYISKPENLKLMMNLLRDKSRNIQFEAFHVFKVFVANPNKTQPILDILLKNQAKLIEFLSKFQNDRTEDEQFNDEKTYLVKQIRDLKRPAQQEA

Structure (SMILES)	IC50 [1] [µM]	LKB1 % Act. Increase [2]
Cc1ccc(-c2cnc(N)c(C(=O)Nc3ccc(S(N)(=O)=O)cc3)n2)cc1 [SU20668-0197, 3-amino-N-(4-sulfamoylphenyl)-6-p-tolylpyrazine-2-carboxamide]	< 3	B (B=399-2000%)
Cc1ccc(-c2cnc(N)c(C(=O)Nc3ccc(S(N)(=O)=O)c(F)c3)n2)cc1 [SU20668-0305, 3-amino-N-(3-fluoro-4-sulfamoylphenyl)-6-p-tolylpyrazine-2-carboxamide]	< 3	C (C=199-1000%)
CCOP(=O)(C[S@SP3](=O)(=O)c1ccc(NC(=O)c2nc(-c3ccc(C)cc3)cnc2N)cc1)OCC [SU20668-0313, diethyl (((4-(3-amino-6-(p-tolyl)pyrazine-2-carboxamido)phenyl)sulfonyl)methyl)phosphonate]	< 3	C (C=199-1000%)
CC(=O)N[S@SP3](=O)(=O)c1ccc(NC(=O)c2nc(-c3ccc(C)cc3)cnc2N)cc1 [SU20668-0314, N-(4-(N-acetylsulfamoyl)phenyl)-3-amino-6-p-tolylpyrazine-2-carboxamide]	3 to 50	C (C=199-1000%)
COP(=O)(CS(=O)(=O)c1ccc(NC(=O)c2nc(-c3ccc(C)cc3)cnc2N)cc1)OC [SU20668-0329, dimethyl (4-(3-amino-6-p-tolylpyrazine-2-carboxamido)phenylsulfonyl)methylphosphonate]	< 3	A (A=>4000%)
CC(=O)NS(=O)(=O)c1ccc(NC(=O)c2nc(-c3ccc(C)s3)cnc2N)cc1 [SU20668-0349, N-(4-(N-acetylsulfamoyl)phenyl)-3-amino-6-(5-methylthiophen-2-yl)pyrazine-2-carboxamide]	3 to 50	C (C=199-1000%)
CC(=O)NS(=O)(=O)c1ccc(NC(=O)c2nc(-c3cc(F)ccc3C#N)cnc2N)cc1 [SU20668-0371, N-(4-(N-acetylsulfamoyl)phenyl)-3-amino-6-(2-cyano-5-fluorophenyl)pyrazine-2-carboxamide]	3 to 50	A (A=>4000%)
Cc1ccc(-c2cnc(N)c(C(=O)Nc3ccc(S(=O)(=O)NC4COC4)cc3)n2)cc1 [SU20668-0468, 3-amino-N-(4-(N-oxetan-3-ylsulfamoyl)phenyl)-6-p-tolylpyrazine-2-carboxamide]	< 3	C (C=199-1000%)
CCOP(C)(=O)CS(=O)(=O)c1ccc(NC(=O)c2nc(-c3ccc(C)cc3)cnc2N)cc1 (centres unmarked) [SU20668-0472, ethyl (4-(3-amino-6-p-tolylpyrazine-2-carboxamido)phenylsulfonyl)methyl(methyl)phosphinate]	< 3	A (A=>4000%)
CCOP(=O)(CS(=O)(=O)c1ccc(NC(=O)c2nc(-c3ccc(C)cc3)cnc2N)cc1F)OCC [SU20668-0482, diethyl (4-(3-amino-6-p-tolylpyrazine-2-carboxamido)-2-fluorophenylsulfonyl)methylphosphonate]		D (D=<1000%)
CC(=O)NS(=O)(=O)c1ccc(NC(=O)c2nc(-c3ccc(C)cc3)cnc2N)cc1F [SU20668-0483]		D (D=<1000%)
Cc1ccc(-c2cnc(N)c(C(=O)Nc3ccc(S(=O)(=O)CP(=O)(OC(C)C)OC(C)C)cc3)n2)cc1 [SU20668-0484, diisopropyl (4-(3-amino-6-p-tolylpyrazine-2-carboxamido)phenylsulfonyl)methylphosphonate]		D (D=<1000%)
CCOP(=O)(OCC)C(F)S(=O)(=O)c1ccc(NC(=O)c2nc(-c3ccc(C)cc3)cnc2N)cc1 (centres unmarked) [SU20668-0485]	< 3	
CCOP(=O)(OCC)C(C)(C)S(=O)(=O)c1ccc(NC(=O)c2nc(-c3ccc(C)cc3)cnc2N)cc1 [SU20668-0486, diethyl 2-(4-(3-amino-6-p-tolylpyrazine-2-carboxamido)phenylsulfonyl)propan-2-ylphosphonate]		B (B=399-2000%)
CCOP(=O)(CS(=O)(=O)c1ccc(NC(=O)c2nc(-c3ccc(C(F)(F)F)cc3)cnc2N)cc1)OCC [SU20668-0488, diethyl (4-(3-amino-6-(4-(trifluoromethyl)phenyl)pyrazine-2-carboxamido)phenylsulfonyl)methylphosphonate]		D (D=<1000%)
Cc1ccc(-c2cnc(N)c(C(=O)Nc3ccc(S(C)(=N)=O)cc3)n2)cc1 (centres unmarked) [SU20668-0490]		C (C=199-1000%)
CCP(=O)(CC)CS(=O)(=O)c1ccc(NC(=O)c2nc(-c3ccc(C)cc3)cnc2N)cc1 [SU20668-0491, 3-amino-N-(4-((diethylphosphoryl)methylsulfonyl)phenyl)-6-p-tolylpyrazine-2-carboxamide]		B (B=399-2000%)
Cc1ccc(-c2cnc(N)c(C(=O)Nc3ccc(S(=O)(=O)CP(C)(C)=O)cc3)n2)cc1 [SU20668-0492, 3-amino-N-[4-(dimethylphosphorylmethylsulfonyl)phenyl]-6-(p-tolyl)pyrazine-2-carboxamide]		B (B=399-2000%)
Cc1ccc(-c2cnc(N)c(C(=O)Nc3ccc(S(=O)(=O)CC4COC4)cc3)n2)cc1 [SU20668-0494, 3-amino-N-(4-(oxetan-3-ylmethylsulfonyl)phenyl)-6-p-tolylpyrazine-2-carboxamide]	< 3	A (A=>4000%)
COP(=O)(CS(=O)(=O)c1ccc(NC(=O)c2nc(-c3ccc(C)c(O)c3)cnc2N)cc1)OC [SU20668-0496, dimethyl (4-(3-amino-6-(3-hydroxy-4-methylphenyl)pyrazine-2-carboxamido)phenylsulfonyl)methylphosphonate]		C (C=199-1000%)
Cc1ccc(-c2cnc(N)c(C(=O)Nc3ccc(S(=O)(=O)CC4CCO4)cc3)n2)cc1 (centres unmarked) [SU20668-0500, 3-amino-N-(4-(oxetan-2-ylmethylsulfonyl)phenyl)-6-p-tolylpyrazine-2-carboxamide]		B (B=399-2000%)
CCOP(=O)(OCC)C(C)S(=O)(=O)c1ccc(NC(=O)c2nc(-c3ccc(C)cc3)cnc2N)cc1 (centres unmarked) [SU20668-0505, diethyl 1-(4-(3-amino-6-p-tolylpyrazine-2-carboxamido)phenylsulfonyl)ethylphosphonate]		A (A=>4000%)
Cc1ccc(-c2cnc(N)c(C(=O)Nc3ccc(S(=O)(=O)NC4(C)COC4)cc3)n2)cc1 [SU20668-0510, 3-amino-N-(4-(N-(3-methyloxetan-3-yl)sulfamoyl)phenyl)-6-p-tolylpyrazine-2-carboxamide]		B (B=399-2000%)
CCP(=O)(CS(=O)(=O)c1ccc(NC(=O)c2nc(-c3ccc(C)cc3)cnc2N)cc1)OC (centres unmarked) [SU20668-0514, methyl (4-(3-amino-6-p-tolylpyrazine-2-carboxamido)phenylsulfonyl)methyl(ethyl)phosphinate]		B (B=399-2000%)
CCOP(=O)(CC)CS(=O)(=O)c1ccc(NC(=O)c2nc(-c3ccc(C)cc3)cnc2N)cc1 (centres unmarked) [SU20668-0515, ethyl (4-(3-amino-6-p-tolylpyrazine-2-carboxamido)phenylsulfonyl)methyl(ethyl)phosphinate]	< 3	B (B=399-2000%)
COP(=O)(OC)C(C)S(=O)(=O)c1ccc(NC(=O)c2nc(-c3ccc(C)cc3)cnc2N)cc1 (centres unmarked) [SU20668-0516, dimethyl 1-(4-(3-amino-6-p-tolylpyrazine-2-carboxamido)phenylsulfonyl)ethylphosphonate]		A (A=>4000%)
CCO[P@@](C)(=O)CS(=O)(=O)c1ccc(NC(=O)c2nc(-c3ccc(C)cc3)cnc2N)cc1 [SU20668-0517, (R)-ethyl (4-(3-amino-6-p-tolylpyrazine-2-carboxamido)phenylsulfonyl)methyl(methyl)phosphinate]		B (B=399-2000%)
CCO[P@](C)(=O)CS(=O)(=O)c1ccc(NC(=O)c2nc(-c3ccc(C)cc3)cnc2N)cc1 [SU20668-0518, (S)-ethyl (4-(3-amino-6-p-tolylpyrazine-2-carboxamido)phenylsulfonyl)methyl(methyl)phosphinate]		B (B=399-2000%)
CO[P@@](C)(=O)CS(=O)(=O)c1ccc(NC(=O)c2nc(-c3ccc(C)cc3)cnc2N)cc1 [SU20668-0519, (R)-methyl (4-(3-amino-6-p-tolylpyrazine-2-carboxamido)phenylsulfonyl)methyl(methyl)phosphinate]	< 3	A (A=>4000%)
